Data as given in US8715628B1, “Cosmetic compositions and methods for inhibiting or reducing trypsin activity” (The Procter & Gamble Company, priority 2011, dated 2014).
Where “and” joins values, the source holds several entries; their conditions need not be identical. Equal entries are not always repeated.

Target: T1, Trypsin from a bovine pancreas (Bos taurus, UniProt P00760)
T1 construct: Trypsin from a bovine pancreas; purchased Sigma-Aldrich T8802; host or cells: bovine pancreas (tissue-derived)
T1 sequence (P00760 24-246): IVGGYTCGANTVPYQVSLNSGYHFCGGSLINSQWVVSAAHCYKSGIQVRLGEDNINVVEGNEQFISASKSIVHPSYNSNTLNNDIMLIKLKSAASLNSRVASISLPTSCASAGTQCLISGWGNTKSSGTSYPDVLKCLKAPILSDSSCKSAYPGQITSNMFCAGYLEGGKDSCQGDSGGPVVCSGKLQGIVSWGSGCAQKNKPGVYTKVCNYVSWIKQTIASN
Experiment: Trypsin assay (fluorogenic substrate Z-Phe-Arg-7-amido-4-methylcoumarin, kinetic slope vs vehicle control)
Type: biochemical
Settings: single-well values, n=8 wells
Method: Trypsin from a bovine pancreas (available from Sigma-Aldrich, USA, Catalog #T8802) is diluted in phosphate buffered saline (PBS) to make a stock of about 0.001% trypsin. In a 96 well white plate with clear bottom (e.g., Corning Costar #3904 available from _VWR International, LLC, Pennsylvania, USA), about 90 uL of 0.001% trypsin stock is mixed with about 10 uL of a test compound (e.g., N-undecylenoyl-L-phenylalanine) or vehicle control, such as dimethyl sulfoxide (DMSO) or water. Typically, there are 8 control wells per plate. The assay is initiated by the addition of 100 uL of the substrate, Z-Phe-Arg-7-amido-4-methylcoumarin (e.g., Calbiochem Catalog #03-32-1501-10 mM in PBS available from Life Technologies, California, USA) and the well plate is monitored in a fluorescent plate reader (e.g., a Gemini plate reader) with an excitation wavelength of 360 nm and an emission wavelength of 460 nm. The reaction progress is measured in a kinetic mode for 5 minutes. SoftMaxPro Data Analysis Software (available from Molecular Devices, Inc.) is used to fit a line to the data points for each well, and the slopes of the lines are then calculated. The slopes of each test compound well are compared to the average of the slopes of the vehicle control wells of a plate to determine the percentage of trypsin activity using equation (1) below. As the trypsin hydrolyzes the substrate, the fluorescence of the 7-amido-coumarin group increases, causing a growth in the signal which reflects the level of trypsin activity. An inhibitor attenuates the fluorescence growth resulting in a smaller slope. Percent(%)trypsin activity=[slope of test well]/[average slope of vehicle control wells] (1)
Using generally the method outlined above, the percentage of trypsin activity was measured for 1:900 dilution of 1% N-undecylenoyl-L-phenylalanine, 3% myo-inositol, 5% niacinamide, and 5% hexyldecanol using a sample size of n=8 wells for each compound. […]

For `O[C@H]1[C@H](O)[C@@H](O)[C@H](O)[C@@H](O)[C@H]1O` [Myo-Inositol, myo-inositol], the “% Activity (percentage of trypsin activity)” value (1:900 dilution of 3% myo-inositol) was 93.8% and 112.4% and 101.4% and 108.9% and 108.0% and 121.4% and 95.6% and 109.2%.

In the case of `C=CCCCCCCCCC(=O)N[C@@H](Cc1ccccc1)C(=O)O` [N-undecylenoyl-L-phenylalanine], the “% Activity (percentage of trypsin activity)” value (1:900 dilution of 1% N-undecylenoyl-L-phenylalanine, >100% up-regulation, <100% inhibition) is reported as 91.4% and 104.9% and 97.2% and 100.5% and 121.8% and 116.3% and 79.9% and 99.8%.

`NC(=O)c1cccnc1` [Niacinamide, niacinamide] was tested, and the “% Activity (percentage of trypsin activity)” value (1:900 dilution of 5% niacinamide) was 106.0% and 91.8% and 91.3% and 107.7% and 111.1% and 109.1% and 93.9% and 88.7%.

For `CCCCCCCCC(CO)CCCCCC` (stereo not shown) [Hexyldecanol, 2-Hexyldecan-1-ol], the “% Activity (percentage of trypsin activity)” value (1:900 dilution of 5% hexyldecanol) was 87.1% and 90.7% and 85.7% and 100.0% and 112.4% and 112.0% and 88.7% and 95.4%.
